For assay [1], the system named is Sprague-Dawley male rats. Briefly: Single dosage acute administration, insulin sensitivity test in rats. The following applies: rat, vs DMSO control. It is filed as in vivo. The protocol:
Thirty-two Sprague-Dawley male rats (body weight 180-220 g) were randomly divided into 4 groups, gave control solvent and three different doses of leonurine crystal form A respectively. The control solvent group was given an equal volume of DMSO, and the treatment groups were administered with three doses of 30 mg/kg, 60 mg/kg and 120 mg/kg respectively, 8 rats per group, where the leonurine crystal form A was dissolved in DMSO at concentrations of 30 mg/ml, 60 mg/ml and 120 mg/ml respectively. The volume of solvent obtained per rat is one millilitre per kilogram of body weight. The route of administration is gavage, weighing before gavage, and taking blood from tail vein to measure blood glucose. Each rat was tested for insulin sensitivity 1 hour after administration of drugs or control solvent, the dose of insulin selected was 0.5 units per kilogram of body weight, intraperitoneal injection of insulin, blood glucose was measured before injection and at 15, 30, 60, 90, and 120 minutes after injection. The data were analyzed by SPSS 11.5 statistical software, and the results were expressed as mean ±standard error of the mean (mean±SEM), pairwise comparison between groups was examined by one-way analysis of variance (ANOVA), P<0.05 was considered significant difference between the groups.

Assay [2] can be described thus: Chronic administration for 3 weeks, body weight of rats. It is filed as in vivo, rat. The following applies: fourth week (one week after discontinuation), vs solvent control, listed as leonurine crystal form A. As for the experimental part:
(§1) Forty male Sprague-Dawley rats weighed 180 to 220 g were randomly divided into 4 groups (10 rats each group): control group are treated with equal volume of DMSO, and the treatment groups were administered at 30 mg/kg per day, 60 mg/kg per day, and 120 mg/kg per day of leonurine crystal form A respectively, where leonurine crystal form A was dissolved in DMSO at concentrates of 30 mg/ml, 60 mg/ml and 120 mg/ml, and the volume of vehicle administered intragastrically in each rat was 1 ml per kg of body weight. The rats were treated with leonurine crystal form A or DMSO once a day continuously for 3 weeks, and the body weight and fasting blood-glucose were detected at third week. The rats were fasted (allowed water ad libitum) for 12 h before experiment. Fasting blood-glucose and body weight were tested after 1 h of administered drugs. The rats were not given drugs on the next days for one week, and the body weight and fasting blood-glucose were detected at forth week. The data were analyzed by SPSS statistical software (version 11.5), and results were expressed as the mean±standard error of the mean (mean±SEM). Multiple group comparisons were tested by one-way analysis of variance (ANOVA). P<0.05 was considered as statistically significant.

Assay [3] has as its system Sprague-Dawley rats. Description: Chronic administration for 3 weeks, fasting blood glucose of rats. The assay is classed as in vivo, rat. The following applies: vs solvent control, listed as leonurine crystal form A. As for the experimental part:
as §1

In assay [4] the test system is ApoE knockout mice. Briefly: Serum lipids in hyperlipidemia ApoE knockout mice on high fat diet. It is filed as in vivo. The following applies: 4 weeks. The protocol: Fifteen C57BL/6J mice (male, 6-8 weeks) and seventy-five ApoE knockout mice (male, 6-8 weeks) were used for experiments. C57BL/6J mice were fed with normal diet, and ApoE knockout mice were fed for 1 week with a diet of normal/high fat diet ratio of 1/1.
Mice were weighed before administered drugs every week, where the dosage of the drug for mice is calculate according to the weight; and housed under 24±1° C. room temperature and 55±5% air humidity condition, and allowed enough food and water ad libitum. After the drug administration continuously for 4 weeks, the mice were anesthetized with pentobarbital sodium according to body weight. Blood (0.5 ml per mouse) was drawn from the inner canthus vein for hematology analysis. Hematology analysis: blood samples were let for standing for 2 h and centrifuged (3000 rpm, 10 min, 4° C.) to obtain serum. The total cholesterol (TC), triacylglycerol (TG) and low-density cholesterol (LDL-C) levels in the serum samples were assessed using automatic biochemical analyzer. Statistical analysis: GraphPad Prism 5 software was used to analyze and draw figure. Results were expressed as the mean±standard (mean±SD), and statistical analysis was performed by one-way analysis of variance (ANOVA) or student's t test. A difference with P<0.05 was considered statistically significant. Statistical significance was set at *P<0.05, **P<0.01, ***P<0.001 versus the model group.

Assay [5] has as its system New Zealand rabbits. Briefly: Carotid atherosclerotic plaque intima-media thickness (IMT) by high-frequency ultrasound in rabbit atherosclerosis model. It is filed as in vivo. The following applies: for intimal-medial thickness (IMT) at the largest carotid plaque: high fat diet 8 weeks, vs model group. The protocol: Forty-two male New Zealand rabbits weighed 2.0 to 2.5 kg were fed with normal diet to adapt to the housing environment for one week before experiment, and then the rabbits were fed with high fat diet (1% cholesterol; SF00-221 SpecialtyFeed Australia) for 8 weeks to establish the rabbit model of atherosclerosis. […] When the rabbits were started to give high fat diet, various drugs or vehicle (NC and MD groups) were simultaneously administered. The drug was administered once a day continuously for 8 weeks and weighed once a week to adjust the dose of drugs. Rabbits were caged in an air-conditioned room (24±1° C. room temperature and 55±5% air humidity) with 12 h light per day and had free access to water and were fed ad libitum. High-frequency ultrasound detection of carotid plaque: the high-frequency microscopy imaging system (Vevo770) was used to detect carotid atherosclerotic plaque at the end of the 8th week of the experiment. The rabbits were anesthetized with 3% pentobarbital sodium in the dose of 30 mg/kg. Using the RMV707B probe (resolution 30 MHz) to observe the carotid bifurcation plaque and measure the blood flow velocity on the carotid artery long axis section by two-dimensional ultrasound. Then adjust direction of the probe so that the angle between the probe and the carotid artery is less than 60° to obtain the long-axis view. The intima-media thickness (IMT) is measured at the maximum end-diastolic plaque. The measurement to detected IMT is taking the vertical distance between the lumen-intimal echo to the medial-outer membrane echo, and detecting the atherosclerotic plaque on the right common carotid artery bifurcation proximal. The carotid ultrasound images and the maximum IMT at the plaque were analyzed, and the morphology of atherosclerotic plaques was evaluated. The data were analyzed by Vevo770 microscopy imaging system software. All measurements were repeated twice in the same area and averaged.

Setting [6] is: dose not stated, listed as leonurine crystal form A.
Setting [7] is: middle dose group 20 mg/kg/day intragastric, vs model group, listed as leonurine crystal form A.

Structures are written as SMILES. “Also recorded” adds a separate entry of the source.

On to `COc1cc(C(=O)OCCCCNC(=N)N)cc(OC)c1O` [crystal form A, 4-guanidino-1-butyl 4-hydroxy-3,5-dimethoxybenzoate], for which the “insulin sensitivity curve (blood glucose after insulin injection)” value in assay [1] (single gavage 30 mg/kg) was “basically coincident with the control group”; in assay [1] (single gavage 60 mg/kg, 60 minute time point, listed as leonurine crystal form A, 60 mg/kg) it was “reached statistical significance; also recorded: decreased significantly”; in assay [1] (single gavage 120 mg/kg, 60 minute time point), “no statistically significant difference was observed”. Further, the weight of rats result in assay [2] (60 mg/kg/d for 3 weeks) is recorded as “significantly reduced; also recorded: significantly decreased”; in assay [2] (120 mg/kg/d for 3 weeks) it was “had not statistically difference; also recorded: not statistically significant”. In addition, the “fasting blood glucose of rats” value in assay [3] (60 mg/kg/d for 3 weeks, fourth week) is given as “significantly reduced; also recorded: decreased fasting blood glucose”; in assay [3] (60 mg/kg/d, after 3 weeks of continuous administration) it was “had not statistically difference; also recorded: not statistically significant”; in assay [3] (120 mg/kg/d for 3 weeks, fourth week), “significantly reduced; also recorded: decreased fasting blood glucose”; in assay [3] (120 mg/kg/d, after 3 weeks of continuous administration), “significant reduce; also recorded: significantly decreased”. Further, the “serum low-density lipoprotein / low-density cholesterol (LDL-C)” value in assay [4] (setting [6]) is “reduce; also recorded: significantly decrease”. Further, the “serum total cholesterol (TC)” value is reported as “reduce; also recorded: significantly decrease” in assay [4] (setting [6]) and “reduced” in assay [4] (middle dose group 20 mg/kg/day intragastric, vs model group). Moreover, the “serum triglycerides / triacylglycerol (TG)” value in assay [4] (setting [6]) was “reduce; also recorded: significantly decrease”. Also, the “serum low-density cholesterol (LDL-C)” value in assay [4] (setting [7]) was “reduced; also recorded: decrease”. In addition, the “serum triacylglycerol (TG)” value in assay [4] (setting [7]) is “reduced; also recorded: decrease”. The “carotid plaque thickness / IMT growth induced by high fat” value in assay [5] (high fat diet 8 weeks, 4, 8, 16 mg/kg/day, dose-dependent effect) was “significantly inhibited IMT growth”. Moreover, the “intimal-medial thickness (IMT) at the largest carotid plaque” value in assay [5] (high dose group 16 mg/kg/d) and in assay [5] (medium dose group 8 mg/kg/d) was “decrease plaque thickness” in each case.

The values are drawn from US11446270B2, “Leonurine crystal and use thereof in preparation of insulin sensitizer, hypoglycemic drug and lipid-lowering drug” (ZHUHAI HENGQIN NEW DISTRICT ZHONGZHU ZHENGTAI MEDICAL …, priority 2017, dated 2022).
